The text below walks through data of patent US9598387B2 (Southern Research Institute, priority 2012, dated 2017).

By Ki is commonly meant a dissociation constant, usually derived from enzyme kinetics or from competition with a known ligand. Read a high Ki as a looser hold on the target.

The structures appear in SMILES notation.

Experiment [1] concerns the target human D3 dopamine receptor (Homo sapiens (Human), UniProt P35462). Put plainly: Radioligand binding (125I-IABN competition), D3. To be noted: for Ki: 125I-IABN competition, HEK cell membranes expressing human D3; for D2/D3 (D3 selectivity ratio, D2 Ki/D3 Ki): calculated D2 Ki/D3 Ki. As for the experimental part:
(§1) The affinities of the target compounds were determined using radioligand binding experiments. […] Competition curves were modeled for a single site. Data from competition dose-response curves were analyzed using Tablecurve program (Jandel). IC50 values were converted to equilibrium dissociation constants (Ki values) using the Cheng and Prusoff correction.

The target of experiment [2] is human D2-long dopamine receptor (Homo sapiens (Human), UniProt P14416). Put plainly: Radioligand binding (125I-IABN competition), D2. To be noted: HEK cell membranes expressing human D2-long. As for the experimental part: as §1
Chain of human D2-long dopamine receptor (P14416 whole entry): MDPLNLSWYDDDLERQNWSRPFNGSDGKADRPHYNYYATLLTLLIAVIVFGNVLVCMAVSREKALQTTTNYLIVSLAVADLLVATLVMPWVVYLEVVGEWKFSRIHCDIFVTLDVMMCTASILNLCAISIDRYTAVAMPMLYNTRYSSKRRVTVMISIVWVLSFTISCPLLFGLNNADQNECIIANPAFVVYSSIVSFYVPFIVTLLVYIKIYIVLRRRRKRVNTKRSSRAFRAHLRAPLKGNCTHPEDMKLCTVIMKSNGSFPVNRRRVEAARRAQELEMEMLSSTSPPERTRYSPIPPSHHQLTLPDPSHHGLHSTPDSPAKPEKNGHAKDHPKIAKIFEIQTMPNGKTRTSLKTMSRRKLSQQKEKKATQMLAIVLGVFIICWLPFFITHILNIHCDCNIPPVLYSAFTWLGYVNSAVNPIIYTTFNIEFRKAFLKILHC

Chain of human D3 dopamine receptor (P35462 whole entry): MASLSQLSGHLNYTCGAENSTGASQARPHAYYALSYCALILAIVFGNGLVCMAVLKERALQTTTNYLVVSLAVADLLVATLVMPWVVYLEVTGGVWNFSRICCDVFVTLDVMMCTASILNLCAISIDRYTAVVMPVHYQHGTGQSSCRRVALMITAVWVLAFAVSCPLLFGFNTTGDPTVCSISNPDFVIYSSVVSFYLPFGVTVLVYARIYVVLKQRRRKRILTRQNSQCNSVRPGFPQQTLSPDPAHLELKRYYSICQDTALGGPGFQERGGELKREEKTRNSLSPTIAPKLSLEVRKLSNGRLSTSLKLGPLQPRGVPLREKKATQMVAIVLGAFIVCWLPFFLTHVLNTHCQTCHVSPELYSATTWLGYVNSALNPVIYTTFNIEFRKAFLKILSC

For `CC(C)(C)c1nc(N2CCN(CCCCNC(=O)N3CCN(c4cnccn4)CC3)CC2)cc(C(F)(F)F)n1` [Compound 33, N-(4-(4-(2-(tert-Butyl)-6-(trifluoromethyl)pyrimidin-4-yl)piperazin-1-yl)butyl)-4-(pyrazin-2-yl)piperazine-1-carboxamide], in experiment [1], affinity was put at a Ki of 8.6 ± 1.8 nM and the “D2/D3 (D3 selectivity ratio, D2 Ki/D3 Ki)” value is given as 54. In addition, in experiment [2], the affinity, expressed as Ki, was 463 ± 55.1 nM.
In the case of `CC(C)(C)c1nc(N2CCN(CCCCNC(=O)N3CCc4[nH]c5ccc(Cl)cc5c4C3)CC2)cc(C(F)(F)F)n1` [Compound 91, N-(4-(4-(2-(tert-Butyl)-6-(trifluoromethyl)pyrimidin-4-yl)piperazin-1-yl)butyl)-8-chloro-3,4-dihydro-1H-pyrido[4,3-b]indole-2(5H)-carboxamide], the inhibitory constant (Ki) in experiment [1] came to 200 ± 47.6 nM; in experiment [2], 1210 ± 211 nM. In addition, the “D2/D3 (D3 selectivity ratio, D2 Ki/D3 Ki)” value in experiment [1] was 6.
Taken in the same sequence, the figures for `Cc1ccc2[nH]c3c(c2c1)CN(C(=O)NCCCCN1CCN(c2cc(C(C)(C)C)nc(C)n2)CC1)CC3` [Compound 94, N-(4-(4-(6-(tert-Butyl)-2-methylpyrimidin-4-yl)piperazin-1-yl)butyl)-8-methyl-3,4-dihydro-1H-pyrido[4,3-b]indole-2(5H)-carboxamide] were 219 ± 23.8 nM, 5480 ± 1150 nM and 25.
On the same counts, the results for `O=C(NCCCCN1CCN(c2cc(C(F)(F)F)nc3ccccc23)CC1)N1CCC(c2ccccc2)CC1` [Compound 100, 4-Phenyl-N-(4-(4-(2-(trifluoromethyl)quinolin-4-yl)piperazin-1-yl)butyl)piperidine-1-carboxamide] are 5320 ± 2220 nM, greater than 100000 nM and greater than 18.
Taken in the same sequence, the figures for `CC(C)(C)c1nc(N2CCN(CCCCNC(=O)N3CCCc4ccccc43)CC2)cc(C(F)(F)F)n1` [Compound 70, N-(4-(4-(2-(tert-Butyl)-6-(trifluoromethyl)pyrimidin-4-yl)piperazin-1-yl)butyl)-3,4-dihydroquinoline-1(2H)-carboxamide] were 33.5 ± 8 nM, 215 ± 36.3 nM and 6.
With `COc1ccc2[nH]c3c(c2c1)CN(C(=O)NCCCCN1CCN(c2cc(C(F)(F)F)nc(C(C)(C)C)n2)CC1)CC3` [Compound 92, N-(4-(4-(2-(tert-Butyl)-6-(trifluoromethyl)pyrimidin-4-yl)piperazin-1-yl)butyl)-8-methoxy-3,4-dihydro-1H-pyrido[4,3-b]indole-2(5H)-carboxamide], in experiment [1], the affinity corresponds to a Ki of 166 ± 4.1 nM and the “D2/D3 (D3 selectivity ratio, D2 Ki/D3 Ki)” value is 8. Moreover, affinity in experiment [2] was put at a Ki of 1350 ± 241 nM.
Consider `CC(C)(C)c1nc(N2CCN(CCCCNC(=O)C3CCN(Cc4ccccc4)CC3)CC2)cc(C(F)(F)F)n1` [Compound 109, 1-Benzyl-N-(4-(4-(2-(tert-butyl)-6-(trifluoromethyl)pyrimidin-4-yl)piperazin-1-yl)butyl)piperidine-4-carboxamide], for which the Ki in experiment [1] worked out at 35.6 ± 1.4 nM; in experiment [2], 337 nM.
`CC(C)(C)c1cc(N2CCN(CCCCNC(=O)N3CCc4[nH]c5ccccc5c4C3)CC2)nc(C(C)(C)C)n1` [Compound 56, N-(4-(4-(2,6-Di-tert-butylpyrimidin-4-yl)piperazin-1-yl)butyl)-3,4-dihydro-1H-pyrido[4,3-b]indole-2(5H)-carboxamide]: in experiment [1], the Ki turned out to be 9.5 ± 1.7 nM and the “D2/D3 (D3 selectivity ratio, D2 Ki/D3 Ki)” value was 33. Also, the inhibition constant (Ki) in experiment [2] came to 308 ± 29.9 nM.
Taken in the same sequence, the figures for `CC(C)(C)c1nc(N2CCN(CCCCNC(=O)N3CCN(C4CCCCC4)CC3)CC2)cc(C(F)(F)F)n1` [Compound 69, N-(4-(4-(2-(tert-Butyl)-6-(trifluoromethyl)pyrimidin-4-yl)piperazin-1-yl)butyl)-4-cyclohexylpiperazine-1-carboxamide] were 29.8 ± 3.8 nM, 7 and 215 ± 54.1 nM.
With `CN1CCN(C(=O)NCCCCN2CCN(c3cc(C(F)(F)F)nc(C(C)(C)C)n3)CC2)CC1` [Compound 64, N-(4-(4-(2-(tert-Butyl)-6-(trifluoromethyl)pyrimidin-4-yl)piperazin-1-yl)butyl)-4-methylpiperazine-1-carboxamide], in experiment [1], affinity was put at a Ki of 9.8 ± 2 nM and the “D2/D3 (D3 selectivity ratio, D2 Ki/D3 Ki)” value is 17. The Ki in experiment [2] stood at 167 ± 25.5 nM.
As to `Cc1nc(N2CCN(CCCCNC(=O)N3CCn4c(C)nnc4C3)CC2)cc(C(C)(C)C)n1` [Compound 88, N-(4-(4-(6-(tert-Butyl)-2-methylpyrimidin-4-yl)piperazin-1-yl)butyl)-3-methyl-5,6-dihydro-[1,2,4]triazolo[4,3-a]pyrazine-7(8H)-carboxamide], in experiment [1], affinity was put at a Ki of 668 ± 122 nM and the “D2/D3 (D3 selectivity ratio, D2 Ki/D3 Ki)” value is listed as 16. For the same compound, the inhibition constant (Ki) in experiment [2] was found to be 10500 ± 2240 nM.
On to `CC(C)(C)c1nc(N2CCN(CCCCNC(=O)C3CCN(c4ccc(C(F)(F)F)cn4)CC3)CC2)cc(C(F)(F)F)n1` [Compound 110, N-(4-(4-(2-(tert-Butyl)-6-(trifluoromethyl)pyrimidin-4-yl)piperazin-1-yl)butyl)-1-(5-(trifluoromethyl)pyridin-2-yl)piperidine-4-carboxamide], for which, in experiment [1], the Ki was determined as 167 ± 8.5 nM and the “D2/D3 (D3 selectivity ratio, D2 Ki/D3 Ki)” value is on record as 11. Moreover, the inhibition constant (Ki) in experiment [2] stood at 1800 ± 257 nM.
On the same counts, the results for `CC(C)(C)c1nc(N2CCN(CCCCNC(=O)N3CCN(c4cccc(-c5ccccc5)c4)CC3)CC2)cc(C(F)(F)F)n1` [Compound 44, 4-([1,1′-Biphenyl]-3-yl)-N-(4-(4-(2-(tert-butyl)-6-(trifluoromethyl)pyrimidin-4-yl)piperazin-1-yl)butyl)piperazine-1-carboxamide] are 49.3 ± 11.2 nM, 22 and 1110 ± 104 nM.
Taken in the same sequence, the figures for `CC(C)(C)c1nc(N2CCN(CCCCNC(=O)N3CCCN(c4ccccc4)CC3)CC2)cc(C(F)(F)F)n1` [Compound 81, N-(4-(4-(2-(tert-Butyl)-6-(trifluoromethyl)pyrimidin-4-yl)piperazin-1-yl)butyl)-4-phenyl-1,4-diazepane-1-carboxamide] were 44.2 ± 8.2 nM, 11 and 507 ± 16.6 nM.
Taken in the same sequence, the figures for `Cc1nc(N2CCN(CCCCNC(=O)N3CCc4[nH]c5ccc(Cl)cc5c4C3)CC2)cc(C(C)(C)C)n1` [Compound 95, N-(4-(4-(6-(tert-Butyl)-2-methylpyrimidin-4-yl)piperazin-1-yl)butyl)-8-chloro-3,4-dihydro-1H-pyrido[4,3-b]indole-2(5H)-carboxamide] were 215 ± 45.5 nM, 26 and 5560 ± 1340 nM.
Turning to `O=C(NCCCCN1CCN(c2ccnc3cc(C(F)(F)F)ccc23)CC1)N1CCN(c2ccccc2)CC1` [Compound 83, 4-Phenyl-N-(4-(4-(7-(trifluoromethyl)quinolin-4-yl)piperazin-1-yl)butyl)piperazine-1-carboxamide], in experiment [1], the inhibitory constant (Ki) amounted to 112 ± 19.1 nM and the “D2/D3 (D3 selectivity ratio, D2 Ki/D3 Ki)” value is listed as 14. In experiment [2], this compound came in with a Ki of 1550 ± 349 nM.
Taken in the same sequence, the figures for `Cc1ccc(N2CCN(C(=O)NCCCCN3CCN(c4cc(C(F)(F)F)nc(C(C)(C)C)n4)CC3)CC2)cc1` [Compound 23, N-(4-(4-(2-(tert-Butyl)-6-(trifluoromethyl)pyrimidin-4-yl)piperazin-1-yl)butyl)-4-(p-tolyl)piperazine-1-carboxamide] were 22.8 ± 4.2 nM, 35 and 802 ± 179 nM.
Taken in the same sequence, the figures for `CC(C)(C)c1nc(N2CCN(CCCCNC(=O)N3CCN(C4CC4)CC3c3ccccc3)CC2)cc(C(F)(F)F)n1` (centres unmarked) [Compound 80, N-(4-(4-(2-(tert-Butyl)-6-(trifluoromethyl)pyrimidin-4-yl)piperazin-1-yl)butyl)-4-cyclopropyl-2-phenylpiperazine-1-carboxamide] were 118 ± 20.1 nM, 7 and 863 ± 135 nM.
Taken in the same sequence, the figures for `CC(C)(C)c1nc(N2CCN(CCCCNC(=O)N3CCN(c4ccc(C(F)(F)F)cc4)CC3)CC2)cc(C(F)(F)F)n1` [Compound 28, N-(4-(4-(2-(tert-Butyl)-6-(trifluoromethyl)pyrimidin-4-yl)piperazin-1-yl)butyl)-4-(4-(trifluoromethyl)phenyl)piperazine-1-carboxamide] were 19.4 ± 4.8 nM, 22 and 428 ± 102 nM.
In the case of `CC(C)(C)c1nc(N2CCN(CCCCNC(=O)N3CCN(c4ccccc4C#N)CC3)CC2)cc(C(F)(F)F)n1` [Compound 25, N-(4-(4-(2-(tert-Butyl)-6-(trifluoromethyl)pyrimidin-4-yl)piperazin-1-yl)butyl)-4-(2-cyanophenyl)piperazine-1-carboxamide], in experiment [1], the affinity corresponds to a Ki of 16.6 ± 2.2 nM and the “D2/D3 (D3 selectivity ratio, D2 Ki/D3 Ki)” value was 23. Moreover, the Ki in experiment [2] came out at 385 ± 58.5 nM.
On the same counts, the results for `CC(C)(C)c1nc(N2CCN(CCCCNC(=O)N3CCN(c4ccc(C#N)cc4)CC3)CC2)cc(C(F)(F)F)n1` [Compound 59, N-(4-(4-(2-(tert-Butyl)-6-(trifluoromethyl)pyrimidin-4-yl)piperazin-1-yl)butyl)-4-(4-cyanophenyl)piperazine-1-carboxamide] are 19.4 ± 4.1 nM, 18 and 342 ± 22 nM.
Taken in the same sequence, the figures for `CC(C)(C)c1nc(N2CCN(CCCCNC(=O)N3CC(c4ccncc4)C3)CC2)cc(C(F)(F)F)n1` [Compound 38, N-(4-(4-(2-(tert-Butyl)-6-(trifluoromethyl)pyrimidin-4-yl)piperazin-1-yl)butyl)-3-(pyridin-4-yl)azetidine-1-carboxamide] were 3.5 ± 0.7 nM, 173 and 605 ± 62 nM.
